Where two headings read alike, the source gives them in different places.
Columns and labels:
[1] = Stability in buffered solutions at pH 2.25, 2.5, 3.0 and 3.5, RP-HPLC purity and degradants (Example 6)
Procedure: In this study, the stability of a liquid formulation of AMG 416 under low pH conditions was investigated. Succinate-buffered saline (10 mM, pH 3.5) was prepared by dissolving 59 mg of succinic acid in 45 ml of lab processed (deionized) water and adjusting the pH to 3.5 using 1N HCl and 1N NaOH as needed, and q.s. to 50 ml. In the same way, a 10 mM, pH 3.5 sodium lactate (56 mg/50 mL) buffer solution was prepared.
NaCl (90 mg) was added to one portion and mannitol (500 mg) was added to the other. Each 10 mL portion was split again into two equal 5 mL portions and the pH was adjusted to 2.25 and 3.5, respectively, with 1N HCl and 1N NaOH. In the same way, four 5 mL solutions were prepared using lactate buffer. 1.0 mL of each of the (eight) resulting solutions was added to 3 serum sample vials. In addition, the remaining pH 2.25, succinate-buffered AMG 416 solution containing NaCl was adjusted to pH 2.5 and 0.5 mL aliquots were added to 3 serum sample vials and the remaining pH 3.5 succinate buffered solution with NaCl was adjusted to pH 3.0 and 0.5 mL aliquots were added to 3 serum sample vials.
At each time point (0, 2, 8, 12 and 24 weeks) all 30 samples were retrieved from storage, equilibrated to room temperature (about 25° C.), and a 100 μL aliquot was diluted to 0.5 mg/mL with water for RP-HPLC analysis. […]

[2] = for Degradation at 2 y: 3.4 mg/mL in succinate-buffered saline
Procedure: In this study, the long term stability of a liquid formulation of AMG 416, at a concentration of 3.4 mg/mL, was determined over a range of pH in succinate-buffered saline. USP purified water (1200 mL) was dispensed into a glass beaker. Sodium succinate (4.05 g) and sodium chloride (13.5 g) were added and stirred to dissolve. The pH was adjusted to 2.5 with 1N NaOH and/or 1N HCl as required. […] The solution was divided into three portions and the pH for each portion was adjusted to 2.5, 3.0 and 3.5, respectively. Each solution was filtered separately through 0.22 micron PVDF filter and dispense 2 mL to 5-cc vials. After being stoppered, sealed, and labeled, the vials were place in designated stability chambers at 5° C.±3, 25° C.±2, and 40° C.±2. Samples were retrieved according to schedule and diluted with deionized water to 1.0 mg/mL for HPLC analysis.

[3] = 5 mg/mL
Procedure: In this study, the effects of various pharmaceutical excipients on the stability of AMG 416 in liquid formulation were determined. A 10 mg/mL solution of AMG 416 and stock solutions of mannitol, glycine, arginine, NaCl and Na2SO4 at 2× isotonic concentrations were prepared. The pH of the AMG 416 solution and the five excipient solutions and deionized water separately were adjusted to pH 3.5 using HCl/NaOH. 500 μL aliquots of each of the six solutions were added to glass vials and 500 μL of the AMG 416 solution was added to the same vials and mixed well. This was performed in triplicate to provided eighteen sample vials, each containing 5 mg/mL AMG 416 and an isotonic concentration of the excipient (or deionized water). This was repeated with a set of solutions adjusted to pH 4.5, providing a further eighteen sample vials. The samples were incubated and removed for HPLC analysis at relevant time points.

For `CC(=O)N[C@H](CSSC[C@H](N)C(=O)O)C(=O)N[C@H](C)C(=O)N[C@H](CCCNC(=N)N)C(=O)N[C@H](CCCNC(=N)N)C(=O)N[C@H](CCCNC(=N)N)C(=O)N[C@H](C)C(=O)N[C@H](CCCNC(=N)N)C(N)=O` [AMG 416, N-acetyl-D-cysteinyl-D-alanyl-D-arginyl-D-arginyl-D-arginyl-D-alanyl-D-arginamide disulfide with L-cysteine], the “pH of maximal stability” value ([1]; 5 mg/mL solutions, Example 6) was 3.0±0.5, the “predicted total degradation over 2 years under refrigerated conditions” value ([1]; liquid formulations at pH 3.0) was 2-4% and the “Degradation at 2 y” value ([2]; pH 2.5, 5° C.) was 4.4%. For the same compound, the “Degradation at 2 y” value ([2]; pH 2.5, 25° C.) was 30.7%, the “Degradation at 2 y” value ([2]; pH 2.5, 40° C.) was 78.8% and the “Degradation at 2 y” value ([2]; pH 3, 5° C.) was 1.5%. For the same compound, the “Degradation at 2 y” value ([2]; pH 3, 25° C.) was 14.6%, the “Degradation at 2 y” value ([2]; pH 3, 40° C.) was 60.0% and the “Degradation at 2 y” value ([2]; pH 3.5, 5° C.) was 0.9%. For the same compound, the “Degradation at 2 y” value ([2]; pH 3.5, 25° C.) was 10.0%, the “Degradation at 2 y” value ([2]; pH 3.5, 40° C.) was 53.1% and the stability over shelf-life ([2]; refrigerated conditions) was “adequate stability of AMG 416 over at least a two year shelf-life”. For the same compound, the “Extent of degradation at 56 days” value ([3]; Arg, pH 3.5, 2-8° C.) was 0.0%, the “Extent of degradation at 56 days” value ([3]; Arg, pH 3.5, 40° C.) was 28% and the “Extent of degradation at 56 days” value ([3]; Arg, pH 3.5, RT) was 0.6%. The “Predicted extent of degradation After 2 Year Storage at Room Temperature” value (“Predicted extent” below) ([3]; Arg, pH 3.5, from 2-8° C. data) was 2%, the “Predicted extent” value ([3]; Arg, pH 3.5, from 40° C. data) was 90% and the “Predicted extent” value ([3]; Arg, pH 3.5, from RT data) was 7%. For the same compound, the “Extent of degradation at 56 days” value ([3]; Arg, pH 4.5, 2-8° C.) was 0.5%, the “Extent of degradation at 56 days” value ([3]; Arg, pH 4.5, 40° C.) was 67% and the “Extent of degradation at 56 days” value ([3]; Arg, pH 4.5, RT) was 29%. The “Predicted extent” value ([3]; Arg, pH 4.5, from 2-8° C. data) was 27%, the “Predicted extent” value ([3]; Arg, pH 4.5, from 40° C. data) was greater than 100% and the “Predicted extent” value ([3]; Arg, pH 4.5, from RT data) was greater than 100%. The “Extent of degradation at 56 days” value ([3]; DI Water, pH 3.5, 2-8° C.) was 0.0%, the “Extent of degradation at 56 days” value ([3]; DI Water, pH 3.5, 40° C.) was 8.2% and the “Extent of degradation at 56 days” value ([3]; DI Water, pH 3.5, RT) was 1.0%. The “Predicted extent” value ([3]; DI Water, pH 3.5, from 2-8° C. data) was 1%, the “Predicted extent” value ([3]; DI Water, pH 3.5, from 40° C. data) was 27% and the “Predicted extent” value ([3]; DI Water, pH 3.5, from RT data) was 13%. For the same compound, the “Extent of degradation at 56 days” value ([3]; DI Water, pH 4.5, 2-8° C.) was 0.7%, the “Extent of degradation at 56 days” value ([3]; DI Water, pH 4.5, 40° C.) was 24% and the “Extent of degradation at 56 days” value ([3]; DI Water, pH 4.5, RT) was 3.6%. For the same compound, the “Predicted extent” value ([3]; DI Water, pH 4.5, from 2-8° C. data) was 35%, the “Predicted extent” value ([3]; DI Water, pH 4.5, from 40° C. data) was 77% and the “Predicted extent” value ([3]; DI Water, pH 4.5, from RT data) was 47%. The “Extent of degradation at 56 days” value ([3]; Gly, pH 3.5, 2-8° C.) was 0.0%, the “Extent of degradation at 56 days” value ([3]; Gly, pH 3.5, 40° C.) was 17% and the “Extent of degradation at 56 days” value ([3]; Gly, pH 3.5, RT) was 0.6%. For the same compound, the “Predicted extent” value ([3]; Gly, pH 3.5, from 2-8° C. data) was 3%, the “Predicted extent” value ([3]; Gly, pH 3.5, from 40° C. data) was 55% and the “Predicted extent” value ([3]; Gly, pH 3.5, from RT data) was 8%. For the same compound, the “Extent of degradation at 56 days” value ([3]; Gly, pH 4.5, 2-8° C.) was 0.6%, the “Extent of degradation at 56 days” value ([3]; Gly, pH 4.5, 40° C.) was 28% and the “Extent of degradation at 56 days” value ([3]; Gly, pH 4.5, RT) was 6.4%. For the same compound, the “Predicted extent” value ([3]; Gly, pH 4.5, from 2-8° C. data) was 31%, the “Predicted extent” value ([3]; Gly, pH 4.5, from 40° C. data) was 90% and the “Predicted extent” value ([3]; Gly, pH 4.5, from RT data) was 83%. For the same compound, the “Extent of degradation at 56 days” value ([3]; Mannitol, pH 3.5, 2-8° C.) was 0.0%, the “Extent of degradation at 56 days” value ([3]; Mannitol, pH 3.5, 40° C.) was 4.9% and the “Extent of degradation at 56 days” value ([3]; Mannitol, pH 3.5, RT) was 0.5%. The “Predicted extent” value ([3]; Mannitol, pH 3.5, from 2-8° C. data) was 0%, the “Predicted extent” value ([3]; Mannitol, pH 3.5, from 40° C. data) was 16% and the “Predicted extent” value ([3]; Mannitol, pH 3.5, from RT data) was 7%. The “Extent of degradation at 56 days” value ([3]; Mannitol, pH 4.5, 2-8° C.) was 0.5%, the “Extent of degradation at 56 days” value ([3]; Mannitol, pH 4.5, 40° C.) was 23% and the “Extent of degradation at 56 days” value ([3]; Mannitol, pH 4.5, RT) was 2.2%. For the same compound, the “Predicted extent” value ([3]; Mannitol, pH 4.5, from 2-8° C. data) was 28%, the “Predicted extent” value ([3]; Mannitol, pH 4.5, from 40° C. data) was 75% and the “Predicted extent” value ([3]; Mannitol, pH 4.5, from RT data) was 28%. For the same compound, the “Extent of degradation at 56 days” value ([3]; Na2SO4, pH 3.5, 2-8° C.) was 0.0%, the “Extent of degradation at 56 days” value ([3]; Na2SO4, pH 3.5, 40° C.) was 9.4% and the “Extent of degradation at 56 days” value ([3]; Na2SO4, pH 3.5, RT) was 0.4%. The “Predicted extent” value ([3]; Na2SO4, pH 3.5, from 2-8° C. data) was 2%, the “Predicted extent” value ([3]; Na2SO4, pH 3.5, from 40° C. data) was 31% and the “Predicted extent” value ([3]; Na2SO4, pH 3.5, from RT data) was 5%. The “Extent of degradation at 56 days” value ([3]; Na2SO4, pH 4.5, 2-8° C.) was 0.4%, the “Extent of degradation at 56 days” value ([3]; Na2SO4, pH 4.5, 40° C.) was 30% and the “Extent of degradation at 56 days” value ([3]; Na2SO4, pH 4.5, RT) was 51%. For the same compound, the “Predicted extent” value ([3]; Na2SO4, pH 4.5, from 2-8° C. data) was 22%, the “Predicted extent” value ([3]; Na2SO4, pH 4.5, from 40° C. data) was 98% and the “Predicted extent” value ([3]; Na2SO4, pH 4.5, from RT data) was greater than 100%. The “Extent of degradation at 56 days” value ([3]; NaCl, pH 3.5, 2-8° C.) was 0.1%, the “Extent of degradation at 56 days” value ([3]; NaCl, pH 3.5, 40° C.) was 3.0% and the “Extent of degradation at 56 days” value ([3]; NaCl, pH 3.5, RT) was 0.3%. For the same compound, the “Predicted extent” value ([3]; NaCl, pH 3.5, from 2-8° C. data) was 4%, the “Predicted extent” value ([3]; NaCl, pH 3.5, from 40° C. data) was 10% and the “Predicted extent” value ([3]; NaCl, pH 3.5, from RT data) was 4%. The “Extent of degradation at 56 days” value ([3]; NaCl, pH 4.5, 2-8° C.) was 1.1%, the “Extent of degradation at 56 days” value ([3]; NaCl, pH 4.5, 40° C.) was 18% and the “Extent of degradation at 56 days” value ([3]; NaCl, pH 4.5, RT) was 1.8%. The “Predicted extent” value ([3]; NaCl, pH 4.5, from 2-8° C. data) was 56%, the “Predicted extent” value ([3]; NaCl, pH 4.5, from 40° C. data) was 58% and the “Predicted extent” value ([3]; NaCl, pH 4.5, from RT data) was 24%.

Reference: patent US11959486B2, “Stable liquid formulation of AMG 416 (etelcalcetide)” (AMGEN INC., priority 2013, dated 2024)
